Key:
[1] = tested on: mitochondria of brain, heart, liver and skeletal muscle; test: Mitochondrial ATP generation capacity in various tissues of young female rats; format: in vivo, rat; settings: 15 days; for ATP generation: (−) Sch B, α-LA, α-Toc at daily 10, 5 and 70 mg/kg respectively; for effect on mitochondrial ATP generation capacity in various tissues: α-LA 5 mg/kg, α-Toc 70 mg/kg daily
[2] = tested on: mitochondria of brain, heart, liver and skeletal muscle; test: Mitochondrial antioxidant status in various tissues of young female rats; format: in vivo, rat; settings: (−) Sch B, α-LA, α-Toc at daily 10, 5 and 70 mg/kg respectively, 15 days
Experimental: The dosages were determined with reference to the equivalent amount of crude herb prescribed for human or the daily recommended intake in health supplements. The control animals received olive oil only. Twenty-four hours after the last dose, the pentobarbital-anesthetized animals were sacrificed by cardiac excision, and brain. heart, liver and skeletal muscle tissues were obtained. Tissue samples (brain, heart, liver, and skeletal muscle) were rinsed with ice-cold isotonic buffer (50 mM Tris, 0.32 M sucrose, 1 mM Na2EDTA, 0.2 mg/ml soybean trypsin inhibitor, 0.2 mg/ml bacitracine, 0.16 mg/ml benzamidine). Tissue homogenates were prepared by homogenizing 0.8 g of myocardial tissue in 8 ml ice-cold isotonic buffer and the homogenates were used for the preparation of mitochondrial fractions by differential centrifugation, as described in Chiu and Ko (2004). The mitochondrial pellets were resuspended in 1.5 ml of isotonic buffer containing 150 μl of 2 mg/ml soybean trypsin inhibitor and constituted the mitochondrial fractions. […] (St. Louis, Mo., USA). […] Aliquots (400 μl) of mitochondrial fractions were mixed with 933 μl Triton X-100 solution (0.3%, v/v, in isotonic buffer) and sonicated for 2 min on ice. The mixtures were then subjected to measurements of mitochondrial glutathione reductase (GRD), Se-glutathione peroxidase (GPX) and glutathione S-transferases (GST) activities by spectrophotometric methods, as described in Chiu et al. (2002).

Compound | ATP generation ([1]; BRAIN) | ATP generation ([1]; HEART) | ATP generation ([1]; LIVER) | ATP generation ([1]; SKELETAL MUSCLE) | effect on mitochondrial ATP generation capacity in various tissues [1] | GPX ([2]; BRAIN) | GRD ([2]; BRAIN) | GSH ([2]; BRAIN) | GST ([2]; BRAIN) | α-Toc level ([2]; BRAIN) | GPX ([2]; HEART) | GRD ([2]; HEART) | GSH ([2]; HEART) | GST ([2]; HEART) | α-Toc level ([2]; HEART) | GPX ([2]; LIVER) | GRD ([2]; LIVER) | GSH ([2]; LIVER) | GST ([2]; LIVER) | α-Toc level ([2]; LIVER) | further results
Cc1c(C)c2c(c(C)c1O)CC[C@@](C)(CCC[C@H](C)CCC[C@H](C)CCCC(C)C)O2 [α-Toc, α-tocopherol] | 62 ± 8 percent control | 95 ± 12 percent control | 83 ± 8 percent control | 80 ± 8 percent control | decreased | 121 ± 12 percent control | 153 ± 10 percent control | 119 ± 6 percent control | 121 ± 5 percent control | 139 ± 9 percent control | 130 ± 10 percent control | 243 ± 20 percent control | 152 ± 9 percent control | 159 ± 7 percent control | 151 ± 5 percent control | 169 ± 14 percent control | 161 ± 5 percent control | 133 ± 11 percent control | 128 ± 3 percent control | 214 ± 31 percent control | GPX ([2]; SKELETAL MUSCLE): 136 ± 7 percent control; GRD ([2]; SKELETAL MUSCLE): 149 ± 8 percent control; GSH ([2]; SKELETAL MUSCLE): 153 ± 6 percent control; GST ([2]; SKELETAL MUSCLE): 176 ± 13 percent control; α-Toc level ([2]; SKELETAL MUSCLE): 189 ± 11 percent control
O=C(O)CCCCC1CCSS1 (stereo not drawn) [α-LA, α-lipoic acid] | 72 ± 4 percent control | 68 ± 9 percent control | 77 ± 5 percent control | 101 ± 1 percent control | decreased | 126 ± 9 percent control | 131 ± 5 percent control | 93 ± 2 percent control | 103 ± 3 percent control | 110 ± 6 percent control | 105 ± 9 percent control | 144 ± 11 percent control | 103 ± 4 percent control | 119 ± 6 percent control | 111 ± 4 percent control | 159 ± 10 percent control | 143 ± 8 percent control | 117 ± 2 percent control | 112 ± 3 percent control | 124 ± 13 percent control | GPX ([2]; SKELETAL MUSCLE): 117 ± 5 percent control; GRD ([2]; SKELETAL MUSCLE): 123 ± 12 percent control; GSH ([2]; SKELETAL MUSCLE): 154 ± 12 percent control; GST ([2]; SKELETAL MUSCLE): 171 ± 19 percent control; α-Toc level ([2]; SKELETAL MUSCLE): 147 ± 14 percent control

— patent US7531195B2, “Schisandrin B preparation” (priority 2005, dated 2009)
